Test results taken from patent publication US20240051952A1, “HMOX1 INDUCERS” (Mitobridge Inc., priority 2019, published 2024).

System: Human Heme Oxygenase-1 (HMOX-1)
Experiment: ELISA assay to measure human heme oxygenase-1 (HMOX-1) in HepG2 lysate
Assay type: cell-based
Settings: fold change of human HMOX1 protein levels relative to DMSO control, HepG2
Method: Example 143. ELISA Assay to Measure Human Heme Oxygenase-1 (HMOX-1) in HepG2 lysate
Reagents and Technical Notes:
ELISA capture antibody, standard HO-1, detection antibody and streptavidin HRP were supplied in the DuoSet IC Human total HO-1 ELISA from R&D systems (DYC3776-2). The substrate cocktail was KPL LumiGLO reserve Chemiluminescent Substrate (54-71-00). PBS was Corning Cellgro Cell Culture (21-040-CV). 10×PBS+0.05% tween20 (PBST) was from KPL.
All incubations of the plate were at room temperature (20° C.) in a closed drawer.
The ELISA plate was processed manually. All loadings were with a multichannel pipet. Plates were emptied by shaking into the sink and tapping onto paper towels to remove any remaining reagent. Plate washing was accomplished by loading all wells with PBS+0.05% tween20 (PBST) using a squirt bottle, shaking the PBST out and tapping the plate onto paper towels.
Preparation of the ELISA Plate: • 1. anti-HO-1 capture antibody was 1440 μg/ml after reconstitution in PBS. This antibody was diluted to 8 μg/ml in PBS and 50 μl per well was added to a 384 well greiner “lumitrac 200” plate. Incubated overnight. • 2. The plate was emptied and 100 μl PBS+1% BSA added to all wells. Incubated 90 minutes at room temperature.
Preparation of HepG2 Lysate: • 1. Cells were cultured in a 96-well tissue culture plate washed with PBS and then the plate frozen at −70° C. overnight. Plates were allowed to warm to ice temperature in an ice bucket. 20 μl of PBS, 0.5% Triton X100, 1 mM EDTA with 1×HALT™ protease inhibitors was added to each well and the plates incubated on ice for 1 hour. • 2. The lysates were frozen at −20° C. overnight.
Measurement of HMOX1 (“HO-1”) • 1. In a polypropylene 384 well plate, human HO-1(after reconstitution in PBS+0.5% Triton+1 mM EDTA) was serially diluted from 20 ng/ml 2-fold in PBS+0.5% triton-X100, 1 mM EDTA to make a 12-point standard curve including a zero point. • 2. In a polypropylene 96 well plate, HepG2 lysate was diluted 1 to 20 in Diluent #4 from DUOSET kit in which the assay standard is also diluted. • 3. The PBS+1% BSA was emptied from the ELISA plate and 30 μl of all samples and standards were added (duplicates recommended). The plate was incubated 90 minutes. • 4. Emptied plate and washed 4 times with PBST. • 5. Diluted HO-1 detection antibody to 200 ng/ml in PBS+1% BSA and added 30 μl to all wells. Incubated 90 minutes. • 6. Emptied plate and washed 4 times with PBST. • 7. Added 30 μl streptavidin HRP at 1/200 in PBS+1% BSA (stock streptavidin concentration not specified) to all wells. Incubated 30 minutes. • 8. Emptied plate and washed 4 times with PBST. • 9. Diluted Lumiglo reserve reagent two parts buffer to one part lumiglo substrate. Added 30 μl to all wells. Incubated 5 minutes. • 10. Measured chemiluminescence on spectramax M5 using 150 ms integration.
Table 1 below lists EC50 and fold changes of human HMOX1 protein levels relative to DMSO control upon treatment with representative compounds.

SMILES	Maximum Fold induction
CC(C)C(N)C(=O)OCCOCCNC(=O)c1ccc2c(c1)nc(Nc1nc3ccccc3o1)n2C.Cl (racemic) [Example 30, 2-(2-(2-(benzo[d]oxazol-2-ylamino)-1-methyl-1H-benzo[d]imidazole-5-carboxamido)ethoxy)ethyl DL-valinate hydrochloride]	25-53
Cn1c(Nc2nc3ccccc3o2)nc2cc(C(=O)O)ccc21 [Example 1h, 2-(benzo[d]oxazol-2-ylamino)-1-methyl-1H-benzo[d]imidazole-5-carboxylic acid]	7-38
COCCNC(=O)c1ccc2c(c1)nc(Nc1nc3ccccc3o1)n2C [Example 1i, 2-(benzo[d]oxazol-2-ylamino)-N-(2-methoxyethyl)-1-methyl-1H-benzo[d]imidazole-5-carboxamide]	6-15
O=C(O)c1ccc2c(c1)nc(Nc1nc3ccc(OC(F)(F)F)cc3s1)n2C1CCOCC1 [Example 2d, 1-(tetrahydro-2H-pyran-4-yl)-2-((6-(trifluoromethoxy)benzo[d]thiazol-2-yl)amino)-1H-benzo[d]imidazole-5-carboxylic acid]	10 (n = 2)
COCCNC(=O)c1ccc2c(c1)nc(Nc1nc3ccc(OC(F)(F)F)cc3s1)n2C1CCOCC1 [Example 2e, N-(2-methoxyethyl)-1-(tetrahydro-2H-pyran-4-yl)-2-((6-(trifluoromethoxy)benzo[d]thiazol-2-yl)amino)-1H-benzo[d]imidazole-5-carboxamide]	20-33
CN1CCC(n2c(Nc3nc4ccc(OC(F)(F)F)cc4s3)nc3cc(C(=O)O)ccc32)CC1 [Example 3d, 1-(1-methylpiperidin-4-yl)-2-((6-(trifluoromethoxy)benzo[d]thiazol-2-yl)amino)-1H-benzo[d]imidazole-5-carboxylic acid]	13
COCCNC(=O)c1ccc2c(c1)nc(Nc1nc3ccc(OC(F)(F)F)cc3s1)n2C1CCN(C)CC1 [Example 3e, N-(2-methoxyethyl)-1-(1-methylpiperidin-4-yl)-2-((6-(trifluoromethoxy)benzo[d]thiazol-2-yl)amino)-1H-benzo[d]imidazole-5-carboxamide]	6-46
CN1CCC(n2c(Nc3nc4ccc(OC(F)(F)F)cc4s3)nc3cc(C(=O)O)ccc32)C1 (stereo not shown) [Example 4d, 1-(1-methylpyrrolidin-3-yl)-2-((6-(trifluoromethoxy)benzo[d]thiazol-2-yl)amino)-1H-benzo[d]imidazole-5-carboxylic acid]	29-33
COCCNC(=O)c1ccc2c(c1)nc(Nc1nc3ccc(OC(F)(F)F)cc3s1)n2C1CCN(C)C1 (stereo not shown) [Example 4e, N-(2-methoxyethyl)-1-(1-methylpyrrolidin-3-yl)-2-((6-(trifluoromethoxy)benzo[d]thiazol-2-yl)amino)-1H-benzo[d]imidazole-5-carboxamide]	19
COCCNC(=O)c1ccc2c(c1)nc(Nc1nc3c(s1)CCCC3)n2C [Example 5, N-(2-methoxyethyl)-1-methyl-2-((4,5,6,7-tetrahydrobenzo[d]thiazol-2-yl)amino)-1H-benzo[d]imidazole-5-carboxamide]	7-12
CC(=O)N1CCc2nc(Nc3nc4cc(C(=O)NCCOCCO)ccc4n3C)sc2C1 [Example 10, 2-((5-acetyl-4,5,6,7-tetrahydrothiazolo[5,4-c]pyridin-2-yl)amino)-N-(2-(2-hydroxyethoxy)ethyl)-1-methyl-1H-benzo[d]imidazole-5-carboxamide]	2
COCCNC(=O)c1ccc2c(c1)nc(Nc1nc3c(s1)COCC3)n2C [Example 11, 2-((6,7-dihydro-4H-pyrano[4,3-d]thiazol-2-yl)amino)-N-(2-methoxyethyl)-1-methyl-1H-benzo[d]imidazole-5-carboxamide]	5
COCCNC(=O)c1ccc2c(c1)nc(Nc1nc3ccccc3[nH]1)n2C [Example 12, 2-((1H-benzo[d]imidazol-2-yl)amino)-N-(2-methoxyethyl)-1-methyl-1H-benzo[d]imidazole-5-carboxamide]	5.5
COCCNC(=O)c1ccc2c(c1)nc(Nc1nc3cc(OC(F)(F)F)ccc3[nH]1)n2C [Example 14, N-(2-methoxyethyl)-1-methyl-2-((5-(trifluoromethoxy)-1H-benzo[d]imidazol-2-yl)amino)-1H-benzo[d]imidazole-5-carboxamide]	6-25
Cn1c(Nc2nc3cc(C(=O)O)ccc3n2C)nc2cc(OC(F)(F)F)ccc21 [Example 15, 1-methyl-2-((1-methyl-5-(trifluoromethoxy)-1H-benzo[d]imidazol-2-yl)amino)-1H-benzo[d]imidazole-5-carboxylic acid]	11-13
Cn1c(Nc2nc3ccccc3o2)nc2cc(C(=O)NCCO)ccc21 [Example 16, 2-(benzo[d]oxazol-2-ylamino)-N-(2-hydroxyethyl)-1-methyl-1H-benzo[d]imidazole-5-carboxamide]	8-27
Cl.Cn1c(Nc2nc3ccccc3o2)nc2cc(C(=O)NCCN)ccc21 [Example 18, N-(2-aminoethyl)-2-(benzo[d]oxazol-2-ylamino)-1-methyl-1H-benzo[d]imidazole-5-carboxamide hydrochloride]	41-52
CN(C)CC(=O)NCCNC(=O)c1ccc2c(c1)nc(Nc1nc3ccccc3o1)n2C [Example 19, 2-(benzo[d]oxazol-2-ylamino)-N-(2-(2-(dimethylamino)acetamido)ethyl)-1-methyl-1H-benzo[d]imidazole-5-carboxamide]	14-26
Cn1c(Nc2nc3ccccc3o2)nc2cc(C(=O)NCCN3CCOCC3)ccc21 [Example 20, 2-(benzo[d]oxazol-2-ylamino)-1-methyl-N-(2-morpholinoethyl)-1H-benzo[d]imidazole-5-carboxamide]	8
CN(C)CCNC(=O)c1ccc2c(c1)nc(Nc1nc3ccccc3o1)n2C [Example 21, 2-(benzo[d]oxazol-2-ylamino)-N-(2-(dimethylamino)ethyl)-1-methyl-1H-benzo[d]imidazole-5-carboxamide]	14
CC(O)CNC(=O)c1ccc2c(c1)nc(Nc1nc3ccccc3o1)n2C (stereo not shown) [Example 23, 2-(benzo[d]oxazol-2-ylamino)-N-(2-hydroxypropyl)-1-methyl-1H-benzo[d]imidazole-5-carboxamide]	25-61
Cn1c(Nc2nc3ccccc3o2)nc2cc(C(=O)NCC(O)CO)ccc21 (stereo not shown) [Example 24, 2-(benzo[d]oxazol-2-ylamino)-N-(2,3-dihydroxypropyl)-1-methyl-1H-benzo[d]imidazole-5-carboxamide]	49
CC(O)COCCNC(=O)c1ccc2c(c1)nc(Nc1nc3ccccc3o1)n2C (stereo not shown) [Example 25]	26
Cn1c(Nc2nc3ccccc3o2)nc2cc(C(=O)NCC3(O)COC3)ccc21 [Example 26, 2-(benzo[d]oxazol-2-ylamino)-N-((3-hydroxyoxetan-3-yl)methyl)-1-methyl-1H-benzo[d]imidazole-5-carboxamide]	26
Cn1c(Nc2nc3ccccc3o2)nc2cc(C(=O)NCCOCC(C)(C)O)ccc21 [Example 27, 2-(benzo[d]oxazol-2-ylamino)-N-(2-(2-hydroxy-2-methylpropoxy)ethyl)-1-methyl-1H-benzo[d]imidazole-5-carboxamide]	17
Cn1c(Nc2nc3ccccc3o2)nc2cc(C(=O)NCCN3CCCC3)ccc21 [Example 28, 2-(benzo[d]oxazol-2-ylamino)-1-methyl-N-(2-(pyrrolidin-1-yl)ethyl)-1H-benzo[d]imidazole-5-carboxamide]	41
Cn1c(Nc2nc3ccccc3o2)nc2cc(C(=O)NCCOCC(=O)O)ccc21 [Example 29, 2-(2-(2-(benzo[d]oxazol-2-ylamino)-1-methyl-1H-benzo[d]imidazole-5-carboxamido)ethoxy)acetic acid]	12

Same assay, conditions: human HMOX1 protein in HepG2 lysate, ELISA; * = average of 2 or more EC50 determinations; NA = Not Active

SMILES	EC50 [nM]
COCCNC(=O)c1ccc2c(c1)nc(Nc1nc3c(s1)CCCC3)n2C [Example 5, N-(2-methoxyethyl)-1-methyl-2-((4,5,6,7-tetrahydrobenzo[d]thiazol-2-yl)amino)-1H-benzo[d]imidazole-5-carboxamide]	1300
